Measurements reported in patent US6337417B1, “N-phenyltetrahydrophthalamic acid derivatives, methods of producing same, and herbicides containing same as effective components” (Central Glass Co., Ltd., priority 1994, dated 2002).

What was measured:
[1] = test system: ichibi (velvetleaf, Abutilon theophrasti); experiment: Experiment 3 foliage treatment: ichibi; format: in vivo; set-up: key: 5: completely killed; 4: seriously injured; 3: considerably injured; 2: somewhat injured; 1: slightly injured; 0: not injured (normally grown); conditions: 4 weeks after treatment
Protocol: (§1) Upon seedling stage (two- or three-leaved stage) of ichibi (velvetleaf, Abutilon theophrasti), onamomi (heartleaf cocklebur, Xanthium strumarium) (4L stage), noasagao (blue morningglory, Ipomoea indica) and ooinutade (pale smartweed, Persicaria lapathifolia) which were grown on a cultivated soil put in pots of 1/8850 ares, a selected compound obtained in a manner analogous to Example 8, in suspended wettable powder, was sprayed to each plant. After that, the pots were kept in a glass chamber to allow each plant to grow, and after the lapse of 4 weeks from the treatment with the selected compounds the herbicidal effects were evaluated. The evaluation of the herbicidal effects was similarly conducted as to that of Experiment 1.

[2] = test system: ooinutade (pale smartweed, Persicaria lapathifolia); experiment: Experiment 3 foliage treatment: ooinutade; format: in vivo; set-up: key: 5: completely killed; 4: seriously injured; 3: considerably injured; 2: somewhat injured; 1: slightly injured; 0: not injured (normally grown); conditions: 4 weeks after treatment
Protocol: as §1

[3] = test system: onamomi (heartleaf cocklebur, Xanthium strumarium); experiment: Experiment 9 foliage treatment: onamomi; format: in vivo; set-up: key: 5: completely killed; 4: seriously injured; 3: considerably injured; 2: somewhat injured; 1: slightly injured; 0: not injured (normally grown); conditions: foliage spray of wettable powder suspension, evaluated 4 weeks after treatment
Protocol: as §1, with “14,” for “8,”, “as” for “as to”

[4] = test system: noasagao (blue morningglory, Ipomoea indica); experiment: Experiment 9 foliage treatment: noasagao; format: in vivo; set-up: key: 5: completely killed; 4: seriously injured; 3: considerably injured; 2: somewhat injured; 1: slightly injured; 0: not injured (normally grown); conditions: foliage spray of wettable powder suspension, evaluated 4 weeks after treatment
Protocol: as §1, with “14,” for “8,”, “as” for “as to”

[5] = test system: ooinutade (pale smartweed, Persicaria lapathifolia); experiment: Experiment 6 foliage treatment: ooinutade; format: in vivo; set-up: key: 5: completely killed; 4: seriously injured; 3: considerably injured; 2: somewhat injured; 1: slightly injured; 0: not injured (normally grown); conditions: foliage spray of wettable powder suspension, evaluated 4 weeks after treatment
Protocol: as §1, with “(4 L” for “(4L”, “11,” for “8,”, “as” for “as to”

[6] = test system: ichibi (velvetleaf, Abutilon theophrasti); experiment: Experiment 6 foliage treatment: ichibi; format: in vivo; set-up: key: 5: completely killed; 4: seriously injured; 3: considerably injured; 2: somewhat injured; 1: slightly injured; 0: not injured (normally grown); conditions: foliage spray of wettable powder suspension, evaluated 4 weeks after treatment
Protocol: as §1, with “(4 L” for “(4L”, “11,” for “8,”, “as” for “as to”

[7] = test system: onamomi (heartleaf cocklebur, Xanthium strumarium); experiment: Experiment 3 foliage treatment: onamomi; format: in vivo; set-up: key: 5: completely killed; 4: seriously injured; 3: considerably injured; 2: somewhat injured; 1: slightly injured; 0: not injured (normally grown); conditions: 4 weeks after treatment
Protocol: as §1

[8] = test system: noasagao (blue morningglory, Ipomoea indica); experiment: Experiment 6 foliage treatment: noasagao; format: in vivo; set-up: key: 5: completely killed; 4: seriously injured; 3: considerably injured; 2: somewhat injured; 1: slightly injured; 0: not injured (normally grown); conditions: foliage spray of wettable powder suspension, evaluated 4 weeks after treatment
Protocol: as §1, with “(4 L” for “(4L”, “11,” for “8,”, “as” for “as to”

[9] = test system: noasagao (blue morningglory, Ipomoea indica); experiment: Experiment 3 foliage treatment: noasagao; format: in vivo; set-up: key: 5: completely killed; 4: seriously injured; 3: considerably injured; 2: somewhat injured; 1: slightly injured; 0: not injured (normally grown); conditions: 4 weeks after treatment
Protocol: as §1

[10] = test system: ichibi (velvetleaf, Abutilon theophrasti); experiment: Experiment 9 foliage treatment: ichibi; format: in vivo; set-up: key: 5: completely killed; 4: seriously injured; 3: considerably injured; 2: somewhat injured; 1: slightly injured; 0: not injured (normally grown); conditions: foliage spray of wettable powder suspension, evaluated 4 weeks after treatment
Protocol: as §1, with “14,” for “8,”, “as” for “as to”

[11] = test system: onamomi (heartleaf cocklebur, Xanthium strumarium); experiment: Experiment 6 foliage treatment: onamomi; format: in vivo; set-up: key: 5: completely killed; 4: seriously injured; 3: considerably injured; 2: somewhat injured; 1: slightly injured; 0: not injured (normally grown); conditions: foliage spray of wettable powder suspension, evaluated 4 weeks after treatment
Protocol: as §1, with “(4 L” for “(4L”, “11,” for “8,”, “as” for “as to”

[12] = test system: ooinutade (pale smartweed, Persicaria lapathifolia); experiment: Experiment 9 foliage treatment: ooinutade; format: in vivo; set-up: key: 5: completely killed; 4: seriously injured; 3: considerably injured; 2: somewhat injured; 1: slightly injured; 0: not injured (normally grown); conditions: foliage spray of wettable powder suspension, evaluated 4 weeks after treatment
Protocol: as §1, with “14,” for “8,”, “as” for “as to”

Compound: CCc1cnc(C2=NC(C)(C(C)C)C(=O)N2)c(C(=O)O)c1 (stereo not shown) [Comparative agentC, Pursuit, reference compound]
- Herbicidal Effect ichibi ([1]; 4 g/10a): 3
- Herbicidal Effect ichibi ([1]; 8 g/10a): 3
- Herbicidal Effect ooinutade ([2]; 4 g/10a): 5
- Herbicidal Effect ooinutade ([2]; 8 g/10a): 5
- Herbicidal Effet onamomi ([3]; 4 g/10a): 4
- Herbicidal Effet onamomi ([3]; 8 g/10a): 5
- Herbicidal Effet noasagao ([4]; 4 g/10a): 3
- Herbicidal Effet noasagao ([4]; 8 g/10a): 4
- Herbicidal Effect ooinutade ([5]; 4 g/10a): 5
- Herbicidal Effect ooinutade ([5]; 8 g/10a): 5
- Herbicidal Effect ichibi ([6]; 4 g/10a): 3
- Herbicidal Effect ichibi ([6]; 8 g/10a): 3
- Herbicidal Effect onamomi ([7]; 4 g/10a): 4
- Herbicidal Effect onamomi ([7]; 8 g/10a): 5
- Herbicidal Effect noasagao ([8]; 4 g/10a): 3
- Herbicidal Effect noasagao ([8]; 8 g/10a): 4
- Herbicidal Effect noasagao ([9]; 4 g/10a): 3
- Herbicidal Effect noasagao ([9]; 8 g/10a): 4
- Herbicidal Effet ichibi ([10]; 4 g/10a): 3
- Herbicidal Effet ichibi ([10]; 8 g/10a): 3
- Herbicidal Effect onamomi ([11]; 4 g/10a): 4
- Herbicidal Effect onamomi ([11]; 8 g/10a): 5
- Herbicidal Effet ooinutade ([12]; 4 g/10a): 5
- Herbicidal Effet ooinutade ([12]; 8 g/10a): 5

Compound: COC(=O)Cc1sc(F)c(N(C(C)=O)C(=O)C2=C(C(=O)OC)CCCC2)c1Cl [compound 11, N-acetyl-N-(4-chloro-2-fluoro-5-methoxycarbonylmethylthiophenyl)-3,4,5,6-tetrahydrophthalamic acid methyl ester]
- melting point: 124 to 124.5 °C
